Assay results reported in article PMC7583056, “Synthesis, Characterisation and In Vitro Anticancer Activity of Catalytically Active Indole-Based Half-Sandwich Complexes” (Molecules, 2020).
Like-named read-outs stand apart in the source and are kept apart here.

What was measured:
[1] = test system: PNT2 cells; assay: Chemosensitivity assay (MTT) in PNT2 cells; type: cell-based; conditions: for IC50: 24 h exposure + 48 h recovery, MTT, mean ± SD
Excerpt: (§1) The antiproliferative activity of the ind-py ligand and of complexes 1–4 against ovarian cancer A2780 (cisplatin sensitive) and A2780cisR (cisplatin resistant) cell lines was studied. The IC50 values obtained for all the complexes are shown in Table 2, together with values for cisplatin, which was used as a positive control (untreated cells for 100% viability as negative control). […] One of the major limitations of existing anticancer drugs is their poor selectivity towards cancer cells. Comparing the response of the cancer cell lines to the normal PNT2 cells provides a preliminary indication towards the selectivity of the compounds.
(§2) In vitro chemosensitivity tests were performed against A2780, A2780cisR and PNT2 cells. Cells were routinely maintained as monolayer cultures in RPMI medium supplemented with 10% foetal calf serum, penicillin (100 I.U./mL) and streptomycin (100 μg/mL), sodium pyruvate (1 mM) and L-glutamine (2 mM). For chemosensitivity studies, cells were incubated in 96-well plates at a concentration of 7.5 × 10^3 cells per well and the plates were incubated for 24 h at 37 °C and a 5% CO2 humidified atmosphere prior to drug exposure.
(§3) Complexes were dissolved in DMSO to provide stock solutions, which were further diluted with media to provide a range of final concentrations. Drug-media solutions were added to cells (the final concentration of DMSO was less than 1% (v/v) in all cases) and incubated for 24 h at 37 °C and 5% CO2 humidified atmosphere. The drug-media was removed from the wells and the cells were washed with PBS (100 μL, twice), and 100 μL of complete fresh media were added to each well. The plates were further incubated for 48 h at 37 °C in a 5% CO2 humidified atmosphere to allow for a period of recovery. 3-(4,5-dimethylthiazol-2-yl)-2,5-diphenyltetrazolium bromide (MTT) (20 μL, 2.5 mg/mL) was added to each well and incubated for 2 h at 37 °C and 5% CO2 humidified atmosphere. All solutions were then removed and 100 μL of DMSO was added to each well in order to dissolve the purple formazan crystals. A Thermo Scientific Multiskan EX microplate photometer was used to measure the absorbance in each well at 570 nm. Cell survival was determined as the absorbance of treated cells divided by the absorbance of controls and expressed as a percentage. The IC50 values were determined from plots of % survival against drug concentration. Each experiment was repeated in triplicates of triplicates and a mean value was obtained and stated as IC50 (μM) ± SD. Cisplatin was also used as a positive control.

[2] = test system: A2780cisR cells; assay: Chemosensitivity assay (MTT) in A2780cisR cells; type: cell-based; conditions: for IC50: 24 h exposure + 48 h recovery, MTT, mean ± SD
Excerpt: as §1, §2, §3

[3] = test system: A2780 cells; assay: Chemosensitivity assay (MTT) in A2780 cells; type: cell-based; conditions: for IC50: 24 h exposure + 48 h recovery, MTT, mean ± SD, read-out: IC50 A2780
Excerpt: as §1, §2, §3

[4] = Stability and aquation in MeOD/D2O by 1H-NMR; type: physicochemical; conditions: MeOD/D2O 1:1 v/v, 1.1 mM, 298 K, over 24 h
Experimental: Owing to the limited aqueous solubility of the complexes, all the reactivity experiments were performed using a mixture MeOD/D2O (1:1 v/v) as a solvent. The stability of complexes 1–4 in MeOD/D2O was studied via ^1H-NMR spectroscopy over a period of 24 h. […] The stability of complexes 1–4 in dimethylsulfoxide (DMSO;1.1 mM) was also studied by ^1H-NMR spectroscopy over a period of 24 h (Figure S1). […] The ligand ind-py is also stable in MeOD/D2O over 24 h (Figure S1E).
Aquation of the monodentate ligand (X) is a common behaviour for half-sandwich complexes of the type [(arene/Cp)M(NUN)X] and it is usually considered an activation step, which allows further reactions with the corresponding targets. To study if aquation of complexes 1–4 occurs in MeOD/D2O (1:1 v/v), experiments in the presence of either one molar equivalent of silver nitrate (to force the release of the monodentate Cl^- ligand), or NaCl (to block hydrolysis), were performed.
Complexes 1–4 were dissolved in MeOD (2.2 mM) and diluted to a final concentration of 1.1 mM with either MeOD or D2O. ^1H-NMR spectra were recorded at t ≤ 10 min, 12 h and 24 h. The samples were then reacted with either 1 mol. equiv. of silver nitrate to obtain the fully hydrolysed species or NaCl to block hydrolysis.

## N.N.[Cl][Pt][Cl] [Cisplatin, reference compound]
[1]
  IC50: 43 ± 3 µM
[2]
  IC50: 22.4 ± 0.5 µM
[3]
  IC50: 10.3 ± 0.5 µM

## c1ccc(-c2cc3ccccc3[nH]2)nc1 [Ind-py, 2-(2-pyridinyl)-1H-indole, reference compound]
[1]; Figure S14
  Cytotoxicity against PNT2 (in words): non-cytotoxic
[1]; Homo sapiens, PNT2
  IC50: > 100 µM
[4]
  Stability in MeOD/D2O: stable
[2]; Figure S14
  Cytotoxicity against A2780cisR (in words): non-cytotoxic
[2]; Homo sapiens, A2780cisR
  IC50: > 100 µM
[3]; Figure S14
  Cytotoxicity against A2780 (in words): non-cytotoxic
[3]; Homo sapiens, A2780
  IC50: > 100 µM
